Like-named read-outs stand apart in the source and are kept apart here.
Experiments:
[1] = biological target: T1, EGFR L858R/T790M/C797S (BaF3-LTC cells) (Homo sapiens, UniProt P00533, C797S/L858R/T790M); assay: EGFR degradation HTRF assay, BaF3-LTC cells; type: cell-based
T1 construct: expressed in transfected cells; host or cells: BaF3
Description: (§1) BaF3 WT(wild type), BaF3-LTC(L858R/T790M/C797S) and BaF3-DTC(Del19/T790M/C797S) cells are treated with compounds diluted in 0.2% DMSO cell culture medium and incubate for 16h, 37° C., 5% CO2, H1975-#36, H1975-#28, H1975-#23 and HCC827 cells are treated with compounds diluted in 0.2% DMSO cell culture medium on day 2, incubate for 16h, 37° C., 5% CO2.the final concentriation of compounds in all assay is start with 10 uM, 5-fold dilution, total 8 doses were included.
(§2) After 16h treatment, add HTRF lysis buffer to each well; seal the plate and incubate 1 hour at room temperature on a plate shaker; Once the cells are lysed, 16 μL of cell lysate are transferred to a PE 384-well HTRF detection plate; 4 μL of pre-mixed HTRF antibodies are added to each well; Cover the plate with a plate sealer, spin 1000 rpm for 1 min, Incubate overnight at room temperature; Read on BMG PheraStar with HTRF protocol (337 nm-665 nm-620 nm).
(§3) The inhibition (degradation) percentage of the compound was calculated by the following equation: Inhibition percentage of Compound=100-100×(Signal-low control)/(High control-low control), wherein signal=each test compound group
(§4) High control=Cell group with added DMSO and without compound, indicating microplate readings without EGFR degradation;
(§5) Dmax is the maximum percentage of inhibition (degradation).
(§6) The IC50 (DC50) value of a compound can be obtained by fitting the following equation
(§7) Y=Bottom+(TOP−Bottom)/(1+((IC50/X)^hillslope))
(§8) Wherein, X and Y are known values, and IC50, Hillslope, Top and Bottom are the parameters obtained by fitting with software. Y is the inhibition percentage (calculated from the equation), X is the concentration of the compound; IC50 is the concentration of the compound when the 50% inhibition is reached. The smaller the IC50 value is, the stronger the inhibitory ability of the compound is. Vice versa, the higher the IC50 value is, the weaker the inhibitory ability of the compound is; Hillslope represents the slope of the fitted curve, generally around 1*; Bottom represents the minimum value of the curve obtained by data fitting, which is generally 0%±20%; Top represents the maximum value of the curve obtained by data fitting, which is generally 100%±20%. The experimental data were fitted by calculating and analyzing with Dotmatics data analysis software.

[2] = test system: EGFR Del19/T790M/C797S (H1975-clone #28); assay: EGFR degradation HTRF assay, H1975-clone #28 DTC cells; type: cell-based
Description: H1975-clone #28(Del19/T790M/C797S) and H1975-clone #23(Del19/C797S). EGFR-Del19/T790M/C797S and EGFR-Del19/C797S were stably expressed in H1975 cell lines by lentivirus-mediated over-expression, respectively. The EGFR over-expressed cells then underwent gene knockout, in which the EGFR targeting sgRNA was designed to only target the endogenous EGFR copies and preserve the exogenous EGFR copies. Followed by the gene knockout, the edited H1975 cells were seeded in 96 well plates at the concentration of 1 cell/well, cultured for about 2 weeks to allow single clones formation. The formed clones were screened by DNA sequencing and whole exon sequencing analysis for the desired edition. H1975-clone #28 and H1975-clone #23 were finally confirmed as homozygous Del19/T790M/C797S EGFR and Del19/C797S EGFR clones, respectively.
as §1, §2, §3, §4, §5, §6, §7, §8

[3] = BaF3-LTC cells; EGFR degradation, IC50 (DC50) from curve fit; read-out: DC50(nM) BaF3-LTC
[4] = H1975 # 28 DTC cells; EGFR degradation, IC50 (DC50) from curve fit; read-out: DC50(nM) H1975 # 28 DTC
[5] = H1975 # 28 DTC cells; maximum percentage of inhibition (degradation)
[6] = BaF3-LTC cells; maximum percentage of inhibition (degradation); read-out: Dmax (%) BaF3-LTC
[7] = read-out: DC50(nM) BaF3-LTC; BaF3-LTC cells; EGFR degradation, IC50 (DC50) from curve fit
[8] = read-out: Dmax (%) BaF3-LTC, BaF3-LTC cells; maximum percentage of inhibition (degradation)
[9] = read-out: DC50(nM) H1975 # 28 DTC; H1975 # 28 DTC cells; EGFR degradation, IC50 (DC50) from curve fit

T1 sequence (P00533 25-1210 T790M/C797S/L858R): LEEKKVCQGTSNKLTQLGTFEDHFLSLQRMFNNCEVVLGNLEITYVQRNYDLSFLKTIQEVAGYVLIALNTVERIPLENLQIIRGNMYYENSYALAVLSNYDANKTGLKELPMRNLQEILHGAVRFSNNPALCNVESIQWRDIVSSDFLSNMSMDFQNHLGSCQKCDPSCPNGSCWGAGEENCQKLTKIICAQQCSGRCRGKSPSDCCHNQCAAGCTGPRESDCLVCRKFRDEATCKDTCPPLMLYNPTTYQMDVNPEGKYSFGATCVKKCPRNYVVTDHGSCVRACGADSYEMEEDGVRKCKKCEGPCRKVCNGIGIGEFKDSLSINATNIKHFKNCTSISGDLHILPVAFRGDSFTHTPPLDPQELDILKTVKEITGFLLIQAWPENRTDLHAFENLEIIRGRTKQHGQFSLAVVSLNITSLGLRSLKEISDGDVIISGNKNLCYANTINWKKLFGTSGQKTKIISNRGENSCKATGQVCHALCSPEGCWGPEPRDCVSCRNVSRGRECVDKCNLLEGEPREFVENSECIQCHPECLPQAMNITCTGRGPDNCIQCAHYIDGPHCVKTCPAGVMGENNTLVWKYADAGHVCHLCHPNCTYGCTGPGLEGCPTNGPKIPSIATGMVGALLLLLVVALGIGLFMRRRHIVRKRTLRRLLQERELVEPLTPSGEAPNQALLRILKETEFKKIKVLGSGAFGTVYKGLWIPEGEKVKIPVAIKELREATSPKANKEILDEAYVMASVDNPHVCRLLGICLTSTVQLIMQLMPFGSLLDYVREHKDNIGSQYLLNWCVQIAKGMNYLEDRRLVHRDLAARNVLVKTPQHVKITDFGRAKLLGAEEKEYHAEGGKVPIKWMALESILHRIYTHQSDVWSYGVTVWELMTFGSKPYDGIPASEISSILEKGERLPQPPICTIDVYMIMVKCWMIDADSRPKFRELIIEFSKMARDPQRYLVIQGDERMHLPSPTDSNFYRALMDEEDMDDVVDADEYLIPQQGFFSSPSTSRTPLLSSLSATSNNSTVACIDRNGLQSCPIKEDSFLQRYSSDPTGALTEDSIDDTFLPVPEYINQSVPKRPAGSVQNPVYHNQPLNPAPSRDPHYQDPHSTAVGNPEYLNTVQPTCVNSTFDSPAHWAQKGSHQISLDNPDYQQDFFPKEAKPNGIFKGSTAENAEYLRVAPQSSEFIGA

SMILES	DC50 [1, 3] [nM]	DC50 [2, 4] [nM]	Dmax [1, 6] [%]	Dmax (%) H1975 # 28 DTC [2, 5] [%]	DC50 [1, 7] [nM]	Dmax [1, 8] [%]	DC50 [2, 9] [nM]
CCOc1cc(N2CCC(N3CCN(CCc4c(F)ccc5c4n(CC)c(=O)n5C4CCC(=O)NC4=O)CC3)CC2)c(CC)cc1Nc1ncc(Br)c(Nc2ccc3nc(CC)ccc3c2P(C)(C)=O)n1 (stereo not shown) [Example 558, 3-(4-(2-(4-(1-(4-((5-bromo-4-((5-(dimethylphosphoryl)-2-ethylquinolin-6-yl)amino)pyrimidin-2-yl)amino)-5-ethoxy-2-ethylphenyl)piperidin-4-yl)piperazin-1-yl)ethyl)-3-ethyl-5-fluoro-2-oxo-2,3-dihydro-1H-benzo[d]imidazol-1-yl)piperidine-2,6-dione]	13.1	2.59		85.18			
CCOc1cc(N2CCC(N3CCN(CCc4cc(F)c([C@H]5CCC(=O)NC5=O)c(F)c4)CC3)CC2)c(CC)cc1Nc1nccc(Nc2cc(F)c3nc(CC)ccc3c2P(C)(C)=O)n1 [Example 591, (R)-3-(4-(2-(4-(1-(4-((4-((5-(dimethylphosphoryl)-2-ethyl-8-fluoroquinolin-6-yl)amino)pyrimidin-2-yl)amino)-5-ethoxy-2-ethylphenyl)piperidin-4-yl)piperazin-1-yl)ethyl)-2,6-difluorophenyl)piperidine-2,6-dione]	72.7	1.57	75	75.79			
CCc1ccc2c(P(C)(C)=O)c(Nc3nc(Nc4cc(CC)c(N5CCC(N6CCN(C(=O)C7CN(c8cc(F)cc9c8oc(=O)n9C8CCC(=O)NC8=O)C7)CC6)CC5)cc4OC)ncc3Br)ccc2n1 (stereo not shown) [Example 447, 3-(7-(3-(4-(1-(4-((5-bromo-4-((5-(dimethylphosphoryl)-2-ethylquinolin-6-yl)amino)pyrimidin-2-yl)amino)-2-ethyl-5-methoxyphenyl)piperidin-4-yl)piperazine-1-carbonyl)azetidin-1-yl)-5-fluoro-2-oxobenzo[d]oxazol-3(2H)-yl)piperidine-2,6-dione]				77.96	2.27	83.2	0.526
CCc1cc(Nc2ncc(Br)c(Nc3ccc4nc(C)ccc4c3P(C)(C)=O)n2)c(OC)cc1N1CCC(N2CCN(C(=O)C3CN(c4cccc5c4oc(=O)n5C4CCC(=O)NC4=O)C3)CC2)CC1 (stereo not shown) [Example 519, 3-(7-(3-(4-(1-(4-((5-bromo-4-((5-(dimethylphosphoryl)-2-methylquinolin-6-yl)amino)pyrimidin-2-yl)amino)-2-ethyl-5-methoxyphenyl)piperidin-4-yl)piperazine-1-carbonyl)azetidin-1-yl)-2-oxobenzo[d]oxazol-3(2H)-yl)piperidine-2,6-dione]				74.38	1.19	92.1	0.378
CCOc1cc(N2CCC(N3CCN(CCCc4cc(OC)cc5c4oc(=O)n5C4CCC(=O)NC4=O)CC3)CC2)c(CC)cc1Nc1ncc(Br)c(Nc2ccc3nc(CC)ccc3c2P(C)(C)=O)n1 (stereo not shown) [Example 597, 3-(7-(3-(4-(1-(4-((5-bromo-4-((5-(dimethylphosphoryl)-2-ethylquinolin-6-yl)amino)pyrimidin-2-yl)amino)-5-ethoxy-2-ethylphenyl)piperidin-4-yl)piperazin-1-yl)propyl)-5-methoxy-2-oxobenzo[d]oxazol-3(2H)-yl)piperidine-2,6-dione]	28.2	1.59	90.1	75.93			
CCc1ccc2c(P(C)(C)=O)c(Nc3nc(Nc4cc(CC)c(N5CCC(N6CCN(C(=O)Cc7cccc8c7n(C)c(=O)n8C7CCC(=O)NC7=O)CC6)CC5)cc4OC)ncc3Br)cc(F)c2n1 (stereo not shown) [Example 671, 3-(4-(2-(4-(1-(4-((5-bromo-4-((5-(dimethylphosphoryl)-2-ethyl-8-fluoroquinolin-6-yl)amino)pyrimidin-2-yl)amino)-2-ethyl-5-methoxyphenyl)piperidin-4-yl)piperazin-1-yl)-2-oxoethyl)-3-methyl-2-oxo-2,3-dihydro-1H-benzo[d]imidazol-1-yl)piperidine-2,6-dione]	4.85	0.219	92.7	75.9			
CCc1ccc2c(P(C)(C)=O)c(Nc3nc(Nc4cc(CC)c(N5CCC(N6CCN(C(=O)C7CCN(c8cccc9c8oc(=O)n9C8CCC(=O)NC8=O)CC7)CC6)CC5)cc4OC)ncc3Br)ccc2n1 (stereo not shown) [Example 450, 3-(7-(4-(4-(1-(4-((5-bromo-4-((5-(dimethylphosphoryl)-2-ethylquinolin-6-yl)amino)pyrimidin-2-yl)amino)-2-ethyl-5-methoxyphenyl)piperidin-4-yl)piperazine-1-carbonyl)piperidin-1-yl)-2-oxobenzo[d]oxazol-3(2H)-yl)piperidine-2,6-dione]				77	2.68	87.7	0.616

Second part, led by results:

DC50 [1, 3] [nM]	DC50 [2, 4] [nM]	Dmax [1, 6] [%]	SMILES	Dmax (%) H1975 # 28 DTC [2, 5] [%]	DC50 [1, 7] [nM]	Dmax [1, 8] [%]	DC50 [2, 9] [nM]
16	3.39	75	CCc1ccc2c(P(C)(C)=O)c(Nc3nc(Nc4cc(CC)c(N5CCC(N6CCN(CC[C@H]7CCN(c8cc(F)c(C9CCC(=O)NC9=O)c(F)c8)C7)CC6)CC5)cc4OC)ncc3Br)ccc2n1 (stereo partly drawn) [Example 650, 3-(4-((S)-3-(2-(4-(1-(4-((5-bromo-4-((5-(dimethylphosphoryl)-2-ethylquinolin-6-yl)amino)pyrimidin-2-yl)amino)-2-ethyl-5-methoxyphenyl)piperidin-4-yl)piperazin-1-yl)ethyl)pyrrolidin-1-yl)-2,6-difluorophenyl)piperidine-2,6-dione]	59.93			
12.4	1.06	91.4	CCc1cc(Nc2ncc(Br)c(Nc3ccc4c(C)nccc4c3P(C)(C)=O)n2)c(OC)cc1N1CCC(N2CCN(CCc3cc(F)c([C@H]4CCC(=O)NC4=O)c(F)c3)CC2)CC1 [Example 684, (R)-3-(4-(2-(4-(1-(4-((5-bromo-4-((5-(dimethylphosphoryl)-1-methylisoquinolin-6-yl)amino)pyrimidin-2-yl)amino)-2-ethyl-5-methoxyphenyl)piperidin-4-yl)piperazin-1-yl)ethyl)-2,6-difluorophenyl)piperidine-2,6-dione]	88.35			
15.4	3.03	85.1	CCc1cc(Nc2ncc(C(F)(F)F)c(Nc3ccc4nc(C)ccc4c3P(C)(C)=O)n2)c(OC)cc1N1CCC(N2CCN(CCc3cc(F)c(C4CCC(=O)NC4=O)c(F)c3)CC2)CC1 (stereo not shown) [Example 689, 3-(4-(2-(4-(1-(4-((4-((5-(dimethylphosphoryl)-2-methylquinolin-6-yl)amino)-5-(trifluoromethyl)pyrimidin-2-yl)amino)-2-ethyl-5-methoxyphenyl)piperidin-4-yl)piperazin-1-yl)ethyl)-2,6-difluorophenyl)piperidine-2,6-dione]	72.37			
7	0.968	91.3	CCc1cc(Nc2ncc(Br)c(Nc3ccc4nc(C)ccc4c3P(C)(C)=O)n2)c(OC)cc1N1CCC(N2CCN(C(=O)C3CCN(c4cc(F)c(C5CCC(=O)NC5=O)c(F)c4)CC3)CC2)CC1 (stereo not shown) [Example 517, 3-(4-(4-(4-(1-(4-((5-bromo-4-((5-(dimethylphosphoryl)-2-methylquinolin-6-yl)amino)pyrimidin-2-yl)amino)-2-ethyl-5-methoxyphenyl)piperidin-4-yl)piperazine-1-carbonyl)piperidin-1-yl)-2,6-difluorophenyl)piperidine-2,6-dione]	58.8			
